Results: the NIST ThermoML archive (doi:10.1021/je200616t)
Where “and” joins values, the source holds several entries; their conditions need not be identical. Equal values may be shown once.

Tests used:
[1] = Liquid, MP522 conductivity instrument
[2] = xn = mol fraction of the nth substance listed; details: 298.15 K, 101 kPa, Liquid, MP522 conductivity instrument

CCCC[n+]1ccc(C)cc1.O=S(=O)([N-]S(=O)(=O)C(F)(F)F)C(F)(F)F
Details	electrical conductivity
[1], 298.15 K, 101 kPa	0.332 S/m and 0.333 S/m

CC[n+]1ccc(C)cc1.O=S(=O)([N-]S(=O)(=O)C(F)(F)F)C(F)(F)F
Details	electrical conductivity
[1], 298.15 K, 101 kPa	0.771 S/m and 0.769 S/m

CCCC[n+]1ccc(C)cc1.O=S(=O)([N-]S(=O)(=O)C(F)(F)F)C(F)(F)F + CCO
[2]
Details	electrical conductivity [S/m]
x1 = 0.011	0.243
x1 = 0.0125	0.269
x1 = 0.015	0.311
x1 = 0.0186	0.369
x1 = 0.0258	0.474
x1 = 0.0376	0.623
x1 = 0.0436	0.689
x1 = 0.0602	0.844
x1 = 0.0676	0.901
x1 = 0.0852	1.01
x1 = 0.1143	1.13
x1 = 0.1262	1.16
x1 = 0.1387	1.19
x1 = 0.1537	1.21
x1 = 0.1811	1.23
x1 = 0.2232	1.22
x1 = 0.2748	1.17
x1 = 0.3347	1.1
x1 = 0.3809	1.03
x1 = 0.4405	0.939
x1 = 0.5405	0.793
x1 = 0.642	0.663
x1 = 0.7148	0.579
x1 = 0.8106	0.482
x1 = 0.9328	0.379
x1 = 1	0.333

CC[n+]1ccc(C)cc1.O=S(=O)([N-]S(=O)(=O)C(F)(F)F)C(F)(F)F + CCO
[2]
Details	electrical conductivity [S/m]
x1 = 0.0118	0.292
x1 = 0.0152	0.36
x1 = 0.021	0.468
x1 = 0.0327	0.669
x1 = 0.0593	1.04
x1 = 0.07	1.16
x1 = 0.0857	1.31
x1 = 0.1196	1.56
x1 = 0.1573	1.73
x1 = 0.2361	1.87
x1 = 0.3013	1.86
x1 = 0.3773	1.77
x1 = 0.4527	1.65
x1 = 0.53	1.51
x1 = 0.608	1.37
x1 = 0.6908	1.22
x1 = 0.7803	1.07
x1 = 0.8913	0.903
x1 = 1	0.769

CCCC[n+]1ccc(C)cc1.O=S(=O)([N-]S(=O)(=O)C(F)(F)F)C(F)(F)F + CO
[2]
Details	electrical conductivity [S/m]
x1 = 0.00761	0.7
x1 = 0.00979	0.836
x1 = 0.0118	0.951
x1 = 0.0142	1.07
x1 = 0.0176	1.24
x1 = 0.021	1.38
x1 = 0.0297	1.69
x1 = 0.0366	1.86
x1 = 0.0544	2.15
x1 = 0.0653	2.25
x1 = 0.0711	2.28
x1 = 0.0773	2.32
x1 = 0.1083	2.34
x1 = 0.1388	2.25
x1 = 0.1724	2.11
x1 = 0.1977	2
x1 = 0.2256	1.87
x1 = 0.2662	1.68
x1 = 0.3346	1.4
x1 = 0.3989	1.18
x1 = 0.481	1.02
x1 = 0.5543	0.861
x1 = 0.6316	0.719
x1 = 0.714	0.599
x1 = 0.7932	0.504
x1 = 0.8534	0.444
x1 = 0.9551	0.362
x1 = 1	0.332

CC[n+]1ccc(C)cc1.O=S(=O)([N-]S(=O)(=O)C(F)(F)F)C(F)(F)F + CO
[2]
Details	electrical conductivity [S/m]
x1 = 0.00925	0.925
x1 = 0.0105	1.01
x1 = 0.0144	1.27
x1 = 0.0176	1.45
x1 = 0.0227	1.72
x1 = 0.0313	2.1
x1 = 0.0393	2.36
x1 = 0.0492	2.62
x1 = 0.0575	2.79
x1 = 0.0666	2.94
x1 = 0.0757	3.05
x1 = 0.0856	3.14
x1 = 0.0993	3.22
x1 = 0.1435	3.26
x1 = 0.1601	3.23
x1 = 0.1736	3.2
x1 = 0.1902	3.14
x1 = 0.2037	3.09
x1 = 0.2297	2.97
x1 = 0.2575	2.84
x1 = 0.284	2.72
x1 = 0.3231	2.53
x1 = 0.3561	2.39
x1 = 0.3932	2.23
x1 = 0.4574	2
x1 = 0.5075	1.81
x1 = 0.5713	1.61
x1 = 0.6042	1.52
x1 = 0.6803	1.33
x1 = 0.7416	1.2
x1 = 0.8215	1.04
x1 = 0.8959	0.912
x1 = 0.918	0.883
x1 = 1	0.771

CCCC[n+]1ccccc1.O=S(=O)([N-]S(=O)(=O)C(F)(F)F)C(F)(F)F [1-butylpyridinium bis[(trifluoromethyl)sulfonyl]imide]
electrical conductivity, [1]
Details	283.15 K	293.15 K	298.15 K	303.15 K	313.15 K
101 kPa	0.151 S/m	–	0.308 S/m	0.377 S/m	0.542 S/m and 0.54 S/m
101.33 kPa	0.15 S/m and 0.151 S/m	0.246 S/m	0.307 S/m and 0.308 S/m	0.378 S/m and 0.377 S/m	0.541 S/m and 0.542 S/m and 0.54 S/m

CCCC[n+]1ccccc1.O=S(=O)([N-]S(=O)(=O)C(F)(F)F)C(F)(F)F [1-butylpyridinium bis[(trifluoromethyl)sulfonyl]imide] + CCO
[2]
Details	electrical conductivity [S/m]
x1 = 0.02	0.389
x1 = 0.0313	0.543
x1 = 0.0415	0.66
x1 = 0.0601	0.83
x1 = 0.0722	0.915
x1 = 0.103	1.06
x1 = 0.1448	1.16
x1 = 0.1659	1.18
x1 = 0.184	1.19
x1 = 0.196	1.19
x1 = 0.2208	1.18
x1 = 0.2693	1.14
x1 = 0.3122	1.09
x1 = 0.362	1.02
x1 = 0.424	0.926
x1 = 0.4616	0.872
x1 = 0.5169	0.793
x1 = 0.5597	0.735
x1 = 0.6073	0.674
x1 = 0.6706	0.598
x1 = 0.7463	0.516
x1 = 0.8415	0.426
x1 = 0.8925	0.383
x1 = 1	0.307
